Measured values taken from ChEMBL document CHEMBL3885881, “DrugMatrix”.

Species on record: Rattus norvegicus
Experiment: DrugMatrix - Regimen: Daily Repeat
Assay type: toxicity, organism-based, Sprague-Dawley
Set-up: regimen Daily Repeat, gender Male, age 6-8 weeks
Details: in vivo, po, route oral GAVAGE, vehicle 100 % WATER; for ABSOLUTE BASOPHIL / ABSOLUTE EOSINOPHIL / ABSOLUTE LYMPHOCYTE / ABSOLUTE MONOCYTE / ABSOLUTE SEGMENTED NEUTROPHIL / BASOPHIL / EOSINOPHIL / ERYTHROCYTE COUNT / HEMATOCRIT / HEMOGLOBIN / LEUKOCYTE COUNT / LYMPHOCYTE / MEAN CORPUSCULAR HEMOGLOBIN / MEAN CORPUSCULAR HEMOGLOBIN CONCENTRATION / MEAN CORPUSCULAR VOLUME / MONOCYTE / NEUTROPHIL / NUCLEATED RED BLOOD CELLS / PLATELET COUNT: tissue Blood; for ALANINE AMINOTRANSFERASE / ALBUMIN / ALKALINE PHOSPHATASE / ASPARTATE AMINOTRANSFERASE / BLOOD UREA NITROGEN / CARBON DIOXIDE / CHLORIDE / CHOLESTEROL / CREATINE PHOSPHOKINASE / CREATININE / GLUCOSE / LACTATE DEHYDROGENASE / LIPASE / PHOSPHORUS / POTASSIUM / SODIUM / TOTAL BILIRUBIN / TOTAL PROTEIN / URIC ACID: tissue Plasma
[1] = 8 mg/kg, 72 h, dose level Low, time 3 day
[2] = 8 mg/kg, 120 h, dose level Low, time 5 day
[3] = 78 mg/kg, 72 h, dose level High, time 3 day
[4] = 78 mg/kg, 120 h, dose level High, time 5 day

NNc1ccccc1 [PHENYLHYDRAZINE]
ABSOLUTE BASOPHIL [1]: 0 CELLS/uL | ABSOLUTE EOSINOPHIL [1]: 0 CELLS/uL | ABSOLUTE LYMPHOCYTE [1]: 13454.67 CELLS/uL | ABSOLUTE MONOCYTE [1]: 235.67 CELLS/uL | ABSOLUTE SEGMENTED NEUTROPHIL [1]: 1043 CELLS/uL | BASOPHIL [1]: 0% | EOSINOPHIL [1]: 0% | ERYTHROCYTE COUNT [1]: 5.23 x10E6/uL | HEMATOCRIT [1]: 34.17% | HEMOGLOBIN [1]: 13.63 G/DL | LEUKOCYTE COUNT [1]: 14.73 x10E3/uL | LYMPHOCYTE [1]: 91.33% | MEAN CORPUSCULAR HEMOGLOBIN [1]: 26.1 pg | MEAN CORPUSCULAR HEMOGLOBIN CONCENTRATION [1]: 39.93 G/DL | MEAN CORPUSCULAR VOLUME [1]: 65.33 fL | MONOCYTE [1]: 1.33% | NEUTROPHIL [1]: 7.33% | NUCLEATED RED BLOOD CELLS [1]: 0 /100WBC | PLATELET COUNT [1]: 994.33 x10E3/uL | ALANINE AMINOTRANSFERASE [1]: 53 u/L | ALBUMIN [1]: 4.17 G/DL | ALKALINE PHOSPHATASE [1]: 388 u/L | ASPARTATE AMINOTRANSFERASE [1]: 115 u/L | BLOOD UREA NITROGEN [1]: 15.33 mg/dL | CARBON DIOXIDE [1]: 21.33 mmol/L | CHLORIDE [1]: 102.67 MEQ/L | CHOLESTEROL [1]: 102.33 mg/dL | CREATINE PHOSPHOKINASE [1]: 1080.67 u/L | CREATININE [1]: 0.13 mg/dL | GLUCOSE [1]: 177 mg/dL | LACTATE DEHYDROGENASE [1]: 308.67 u/L | LIPASE [1]: 9.33 u/L | PHOSPHORUS [1]: 14.53 mg/dL | POTASSIUM [1]: 6.82 MEQ/L | SODIUM [1]: 146.1 MEQ/L | TOTAL BILIRUBIN [1]: 0.17 mg/dL | TOTAL PROTEIN [1]: 5.87 G/DL | URIC ACID [1]: 2.1 mg/dL | ABSOLUTE BASOPHIL [2]: 0 CELLS/uL | ABSOLUTE EOSINOPHIL [2]: 0 CELLS/uL | ABSOLUTE LYMPHOCYTE [2]: 16277.67 CELLS/uL | ABSOLUTE MONOCYTE [2]: 115 CELLS/uL | ABSOLUTE SEGMENTED NEUTROPHIL [2]: 974 CELLS/uL | BASOPHIL [2]: 0% | EOSINOPHIL [2]: 0% | ERYTHROCYTE COUNT [2]: 5.53 x10E6/uL | HEMATOCRIT [2]: 35.4% | HEMOGLOBIN [2]: 14.27 G/DL | LEUKOCYTE COUNT [2]: 17.37 x10E3/uL | LYMPHOCYTE [2]: 93.67% | MEAN CORPUSCULAR HEMOGLOBIN [2]: 25.8 pg | MEAN CORPUSCULAR HEMOGLOBIN CONCENTRATION [2]: 40.3 G/DL | MEAN CORPUSCULAR VOLUME [2]: 64.07 fL | MONOCYTE [2]: 0.67% | NEUTROPHIL [2]: 5.67% | NUCLEATED RED BLOOD CELLS [2]: 0 /100WBC | PLATELET COUNT [2]: 1250.67 x10E3/uL | ALANINE AMINOTRANSFERASE [2]: 46.67 u/L | ALBUMIN [2]: 4.1 G/DL | ALKALINE PHOSPHATASE [2]: 440.67 u/L | ASPARTATE AMINOTRANSFERASE [2]: 81.67 u/L | BLOOD UREA NITROGEN [2]: 15.33 mg/dL | CARBON DIOXIDE [2]: 26.33 mmol/L | CHLORIDE [2]: 102 MEQ/L | CHOLESTEROL [2]: 63 mg/dL | CREATINE PHOSPHOKINASE [2]: 289 u/L | CREATININE [2]: 0.12 mg/dL | GLUCOSE [2]: 147.67 mg/dL | LACTATE DEHYDROGENASE [2]: 310.67 u/L | LIPASE [2]: 9 u/L | PHOSPHORUS [2]: 13.93 mg/dL | POTASSIUM [2]: 6.84 MEQ/L | SODIUM [2]: 144.13 MEQ/L | TOTAL BILIRUBIN [2]: 0.17 mg/dL | TOTAL PROTEIN [2]: 5.83 G/DL | URIC ACID [2]: 1.23 mg/dL | ABSOLUTE BASOPHIL [3]: 0 CELLS/uL | ABSOLUTE EOSINOPHIL [3]: 0 CELLS/uL | ABSOLUTE LYMPHOCYTE [3]: 24784.33 CELLS/uL | ABSOLUTE MONOCYTE [3]: 97 CELLS/uL | ABSOLUTE SEGMENTED NEUTROPHIL [3]: 9152 CELLS/uL | BASOPHIL [3]: 0% | EOSINOPHIL [3]: 0% | ERYTHROCYTE COUNT [3]: 3.43 x10E6/uL | HEMATOCRIT [3]: 24.43% | LEUKOCYTE COUNT [3]: 34.03 x10E3/uL | LYMPHOCYTE [3]: 73% | MEAN CORPUSCULAR VOLUME [3]: 71.33 fL | MONOCYTE [3]: 0.33% | NEUTROPHIL [3]: 26.67% | NUCLEATED RED BLOOD CELLS [3]: 21.67 /100WBC | PLATELET COUNT [3]: 1624.67 x10E3/uL | ALANINE AMINOTRANSFERASE [3]: 46 u/L | ALBUMIN [3]: 4.27 G/DL | ALKALINE PHOSPHATASE [3]: 266 u/L | ASPARTATE AMINOTRANSFERASE [3]: 107.67 u/L | BLOOD UREA NITROGEN [3]: 15 mg/dL | CARBON DIOXIDE [3]: 23.67 mmol/L | CHLORIDE [3]: 102.33 MEQ/L | CHOLESTEROL [3]: 53.33 mg/dL | CREATINE PHOSPHOKINASE [3]: 217.33 u/L | CREATININE [3]: 0.11 mg/dL | GLUCOSE [3]: 182.33 mg/dL | LACTATE DEHYDROGENASE [3]: 512.67 u/L | LIPASE [3]: 9.33 u/L | PHOSPHORUS [3]: 12.13 mg/dL | POTASSIUM [3]: 7.33 MEQ/L | SODIUM [3]: 141.1 MEQ/L | TOTAL BILIRUBIN [3]: 0.9 mg/dL | TOTAL PROTEIN [3]: 5.7 G/DL | URIC ACID [3]: 2 mg/dL | ABSOLUTE BASOPHIL [4]: 0 CELLS/uL | ABSOLUTE EOSINOPHIL [4]: 0 CELLS/uL | ABSOLUTE LYMPHOCYTE [4]: 25256 CELLS/uL | ABSOLUTE MONOCYTE [4]: 656 CELLS/uL | ABSOLUTE SEGMENTED NEUTROPHIL [4]: 6888 CELLS/uL | BASOPHIL [4]: 0% | EOSINOPHIL [4]: 0% | ERYTHROCYTE COUNT [4]: 2.84 x10E6/uL | HEMATOCRIT [4]: 25.3% | LEUKOCYTE COUNT [4]: 32.8 x10E3/uL | LYMPHOCYTE [4]: 77% | MEAN CORPUSCULAR VOLUME [4]: 89.1 fL | MONOCYTE [4]: 2% | NEUTROPHIL [4]: 21% | NUCLEATED RED BLOOD CELLS [4]: 31 /100WBC | PLATELET COUNT [4]: 1632 x10E3/uL | ALANINE AMINOTRANSFERASE [4]: 84 u/L | ALBUMIN [4]: 4.8 G/DL | ALKALINE PHOSPHATASE [4]: 311 u/L | ASPARTATE AMINOTRANSFERASE [4]: 313 u/L | BLOOD UREA NITROGEN [4]: 28 mg/dL | CARBON DIOXIDE [4]: 17 mmol/L | CHLORIDE [4]: 106 MEQ/L | CHOLESTEROL [4]: 81 mg/dL | CREATINE PHOSPHOKINASE [4]: 196 u/L | CREATININE [4]: 0.1 mg/dL | GLUCOSE [4]: 129 mg/dL | LACTATE DEHYDROGENASE [4]: 1486 u/L | LIPASE [4]: 10 u/L | PHOSPHORUS [4]: 11.1 mg/dL | POTASSIUM [4]: 6.59 MEQ/L | SODIUM [4]: 143.3 MEQ/L | TOTAL BILIRUBIN [4]: 2.2 mg/dL | TOTAL PROTEIN [4]: 6.2 G/DL | URIC ACID [4]: 2 mg/dL
